Measured values as given in publication PMC6042793 (PLoS ONE, 2018).

Tests used:
[1] = tested on: sialidase activity of A/Shizuoka/1573/2009 (H1N1pdm), H275Y; type: biochemical, influenza A virus (H1N1pdm); conditions: pH 6.5
[2] = tested on: sialidase activity of A/Shizuoka/30/2014 (H1N1pdm), H275Y; type: biochemical, influenza A virus (H1N1pdm); conditions: pH 6.5
[3] = target: viral sialidase activity of A/Shizuoka/1573/2009 (H1N1pdm), H275Y (Influenza A virus, UniProt C3W5S3, H275Y); type: biochemical; conditions: read-out: IC50 values in the sialidase inhibition assay
[4] = target: viral sialidase activity of A/Shizuoka/17/2016 (H1N1pdm) (Influenza A virus, UniProt A0A0X9QTS2); type: biochemical; conditions: read-out: IC50 values in the sialidase inhibition assay
[5] = target: viral sialidase activity of A/Shizuoka/30/2014 (H1N1pdm), H275Y (Influenza A virus, UniProt W8DXJ8, H275Y); type: biochemical
[6] = target: viral sialidase activity of A/Shizuoka/19/2016 (H1N1pdm) (Influenza A virus, UniProt A0A0X9QTS2); type: biochemical; conditions: read-out: IC50 values in the sialidase inhibition assay

In the case of `CCOC(=O)C1=C[C@@H](OC(CC)CC)[C@H](NC(C)=O)[C@@H](N)C1` [OV, oseltamivir], the “BTP3 fluorescence on the membrane in the presence of NAI” value (from here on “BTP3 fluorescence on the membrane”) [1] is reported as “strong fluorescence” and the “BTP3 fluorescence on the membrane” value [2] is reported as “strong fluorescence”.
In the case of `CCC(CC)[C@H](NC(C)=O)[C@@H]1[C@H](O)[C@@H](C(=O)O)C[C@H]1N=C(N)N` [PV, peramivir], the “BTP3 fluorescence on the membrane” value [1] is reported as “strong fluorescence”, the IC50 [3] is reported as 41 nM and the IC50 [4] is reported as 0.05 nM. The “IC50 for A/Shizuoka/30/2014 relative to that for A/Shizuoka/1573/2009” value [5] was 1.9 fold, the IC50 ([5]; read-out: IC50 values in the sialidase inhibition assay) was 79 nM and the “BTP3 fluorescence on the membrane” value [2] was “strong fluorescence”. For the same compound, the IC50 [6] was 0.05 nM.
